Laboratory results taken from PMC12326976 (Antimicrobial Agents and Chemotherapy, 2025).
Bridge positions count the residues as written; N and C are the ends. Ends that are not written are not given here. I, II: the chains in the order shown.

What was measured:
H1N1 virus [1] = format: cell-based, influenza H1N1 virus
H1N1 virus [2] = assay: Plaque reduction assay, H1N1 in MDCK cells; format: cell-based, influenza A/Hong Kong/415742/2009 (H1N1); conditions: virus treated with 4H30 50 µg mL^−1, then diluted to 0.05 µg mL^−1 for plaque assay, Fig. 1e
Method: (§1) The antiviral activity of peptides was measured by plaque reduction assay. Briefly, peptides were dissolved in PBS or 20% PBS. Peptides (0.2-25.0 µg mL^−1) were premixed with H1N1 virus at room temperature. After 30 min of incubation, the peptide-virus mixture was transferred to MDCK cells for infection at 37°C. At 1 hpi, infectious media were removed, and then 1% low melting agar was added to cells. Cells were fixed using 4% formalin at 2–3 dpi. […] (0.1%) was added to cells for cell staining to count viral plaques.

LDLR = target: T1, LDLR (Homo sapiens, UniProt P01130); assay: ELISA binding assay, LDLR; conditions: 4H30 1.0 µg, 0.25 µg and 0 µg, Fig. 4g
T1 construct: His; purchased Sino 10231-H081-50
Method: (§2) Peptides (1.0 µg per well) were dissolved in H2O. Influenza HA, NA (Sino, Cat^# 11058-V07B), or LDLR (Sino, Cat^# 10231-H081-50, 100 ng) dissolved in PBS was coated onto ELISA plates, incubated at 4°C overnight, and blocked with BSA at 4°C overnight. HA or VP1 was added to wells for binding and then determined by incubation with goat anti-His-HRP (Invitrogen, Cat^# R93125, 1: 2,000) at 37°C for 30 min. The reaction was developed by adding 100 µL of the TMB single solution (Life Technologies, Cat^# 002023) for 15 min at 37°C and stopped with 50 µL of 1 M H2SO4. Readings were obtained in an ELISA plate reader (Victor 1420 Multilabel Counter; PerkinElmer) at 450 nm.

[3] = tested on: HA-mediated cell-cell fusion (pH7N7-HA); conditions: 125 µg mL^−1, 293T cells, pH 5.0, Fig. 2b
H1N1 virus [4] = format: cell-based, influenza H1N1 virus; remark: listed apart in the source
H3N2 virus = assay: Plaque assay, H3N2 in MDCK cells; format: cell-based, influenza H3N2 virus; conditions: plaque number normalized to untreated virus, Fig. S2
Method: as §1
Fig. S2. The antiviral activity of 4H30 against H3N2 virus in MDCK cells. H3N2 virus was treated with the indicated concentrations of 4H30 to infect MDCK cells. The percentage (%) was the plaque number of virus treated with 4H30 normalized to virus without treatment (0).

H1N1 virus [5] = format: cell-based, influenza H1N1 virus; remark: listed apart in the source
A(H1N1)pdm09 virus = tested on: A(H1N1)pdm09 virus; design: species or system BALB/c mice; conditions: mouse, in vivo
NA = assay: ELISA binding assay, NA; design: species or system influenza virus; conditions: 4H30 1 µg coated, NA 100 ng, anti-His antibody, Fig. 2a
Method: as §2

rhinovirus A1 = assay: Anti-rhinovirus assay in cardiomyocytes (hIPSC-CMs); format: cell-based; conditions: 4H30 25 µg mL^−1; supernatants at 48 hpi; compared to DMEM- and P9RS-treated controls; Fig. 5d
Text: Cardiomyocytes are generated from human-induced pluripotent stem cells (iPSCs) as we had previously published ([22], [23]). Initially, IMR90 iPSCs are maintained in 12-well plates pre-coated with Matrigel (Thermo Fisher Scientific, USA) using StemFlex Medium (Thermo Fisher Scientific, USA). Subsequently, differentiation into cardiomyocytes is induced with the STEMdiff Ventricular Cardiomyocyte Differentiation Kit (Stem Cell Technologies, USA). This involves the sequential addition of Supplement A from days 1 to 2, Supplement B from days 3 to 4, and Supplement C from days 5 to 8 to cardiomyocyte differentiation basal medium. From day 9 onward, cardiomyocytes are sustained in cardiomyocyte maintenance basal medium with supplement (Stem Cell Technologies, USA). Lactate purification of cardiomyocytes is performed on days 11 to 12. Standard immunofluorescence staining with α-actinin and electrophysiology analysis by the patch clamping technique was performed to confirm their cardiomyocyte phenotype. To infect the cells, Rhinovirus A1 (0.025 TCID50) was treated with or without peptide in the media for infection. […]
Fig 5 4H30 inhibited rhinovirus replication in nasal organoids and cardiomyocytes. […] Viral RNAs were measured on day 1, day 2, and day 3 post-infection. […] Viral RNAs in the cell supernatants were measured by RT-qPCR at the indicated time points. […]

T1 sequence (P01130 22-860): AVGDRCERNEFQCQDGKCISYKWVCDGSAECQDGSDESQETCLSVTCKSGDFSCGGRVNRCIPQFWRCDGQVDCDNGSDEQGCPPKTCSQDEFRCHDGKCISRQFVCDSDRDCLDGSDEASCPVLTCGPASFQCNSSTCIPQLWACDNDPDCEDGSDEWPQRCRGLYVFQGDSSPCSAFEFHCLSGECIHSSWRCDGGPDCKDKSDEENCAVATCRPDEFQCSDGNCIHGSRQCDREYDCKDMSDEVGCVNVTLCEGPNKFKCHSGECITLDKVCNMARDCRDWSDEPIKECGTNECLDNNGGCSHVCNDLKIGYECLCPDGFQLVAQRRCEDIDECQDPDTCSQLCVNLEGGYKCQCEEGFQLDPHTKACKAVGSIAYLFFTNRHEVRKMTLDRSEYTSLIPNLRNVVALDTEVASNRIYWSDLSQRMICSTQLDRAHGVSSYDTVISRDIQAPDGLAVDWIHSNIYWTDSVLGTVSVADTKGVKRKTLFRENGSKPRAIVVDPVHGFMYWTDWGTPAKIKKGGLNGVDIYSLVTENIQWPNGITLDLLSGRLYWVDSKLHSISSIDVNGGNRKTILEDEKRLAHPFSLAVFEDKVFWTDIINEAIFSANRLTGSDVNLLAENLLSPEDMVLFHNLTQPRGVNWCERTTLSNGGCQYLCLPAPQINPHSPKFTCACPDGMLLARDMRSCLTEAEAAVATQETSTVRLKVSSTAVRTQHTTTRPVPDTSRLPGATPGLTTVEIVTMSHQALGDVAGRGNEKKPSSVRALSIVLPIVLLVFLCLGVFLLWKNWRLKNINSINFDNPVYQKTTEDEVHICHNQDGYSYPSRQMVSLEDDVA

How did the “H1N1 replication, cells treated before and after infection (1h-Pre, 1h-Post)” value (H1N1 virus [1]) turn out when “I: GAICHPVFCPRRYKQIGTCGLPGTKCCKKPKK / II: GAICHPVFCPRRYKQIGTCGLPGTKCCKKPK / III: GAICHPVFCPRRYKQIGTCGLPGTKCCKKP / IV: GAICHPVFCPRRYKQIGTCGLPGTKCCKKP (amide I:31-IV:C, I:32-II:C, II:31-III:C; cysteines drawn unpaired) [4H30]” was run?
Its value is “did not show significant antiviral activity when cells were treated before and after viral infection”.

And the “H1N1 replication, virus treated before infection” value (H1N1 virus [1])?
Its value is “inhibited viral replication when the virus was treated with 4H30 before viral infection”.

What about the “antiviral activity after treating virus and 1,000-fold dilution” value (H1N1 virus [2]) of the same substance?
Its value is “displayed significant antiviral activity against the virus”.

What about the “binding to LDLR” value (LDLR) of the same substance?
The value was “bound to the LDLR receptor of rhinovirus”.

And the “inhibition of HA-mediated cell-cell fusion induced by low pH” value [3]?
The value was “did not effectively block HA-mediated cell-cell fusion”.

What about the “H1N1 viral release, supernatant virus at 8 hpi” value (H1N1 virus [4]) of the same substance?
The value was “significantly inhibited H1N1 viral release from cells”.

And the “H1N1 viral release, supernatant virus at 18 hpi” value (H1N1 virus [4])?
Its value is “inhibited viral release at 18 hpi”.

What about the “inhibition of viral release after removal of GAGs” value (H1N1 virus [4]) of the same substance?
Its value is “removal of GAGs reduced the activity of 4H30 in inhibiting viral release”.

And the “viral HA on cell membrane, anti-HA staining at 18 hpi” value (H1N1 virus [4])?
The value was “more viral HA was detected on the cell membrane”.

What about the “inhibition of H3N2 virus infection” value (H3N2 virus) of the same substance?
Its value is “significantly inhibited group 2 influenza H3N2 virus infection”.

And the “H1N1 entry into cells” value (H1N1 virus [5])?
The value was “prevented viral entry into cells”.

What about the “survival of mice after lethal H1N1 challenge (protected mice)” value (A(H1N1)pdm09 virus) of the same substance?
The value was 5/6.

What about the “body weight loss of H1N1-infected mice” value (A(H1N1)pdm09 virus; 0.5 mg/kg) of the same substance?
Its value is “significantly reduced body weight loss”.

And the “viral loads in the lungs on day 2 post-infection” value (A(H1N1)pdm09 virus; 0.5 mg/kg)?
Its value is “significantly inhibited H1N1 viral replication in mouse lungs”.

And the “binding to NA” value (NA)?
Its value is “not effectively bound to NA”.

And the “rhinovirus replication in hIPSC-CMs” value (rhinovirus A1)?
Its value is “significantly inhibited viral replication in hIPSC-CMs”.
